PubChem BioAssay (NCI)
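Grown in 96-well plates, cells were treated for 48 hours with each compound at five concentrations. Insufficient inhibition: endpoint recorded as highest concentration tested. At the GI50, growth is halved. TGI is the concentration that stops growth completely.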

Assays:
Experiment in all cases: NCI-60 cell line screen, 48 h
UACC-62 melanoma = tested on: UACC-62 melanoma
SNB-75 CNS = tested on: SNB-75 CNS
COLO 205 colon = tested on: COLO 205 colon
SF-295 CNS = tested on: SF-295 CNS
HOP-92 NSCLC = tested on: HOP-92 NSCLC
OVCAR-8 ovarian = tested on: OVCAR-8 ovarian
SW-620 colon = tested on: SW-620 colon
SK-MEL-28 melanoma = tested on: SK-MEL-28 melanoma
A498 renal = tested on: A498 renal
SK-MEL-5 melanoma = tested on: SK-MEL-5 melanoma

| SMILES | GI50 (UACC-62 melanoma) [µM] | TGI (UACC-62 melanoma) [µM] | GI50 (SNB-75 CNS) [µM] | TGI (SNB-75 CNS) [µM] | GI50 (COLO 205 colon) [µM] | TGI (COLO 205 colon) [µM] | GI50 (SF-295 CNS) [µM] | TGI (SF-295 CNS) [µM] | GI50 (HOP-92 NSCLC) [µM] | TGI (HOP-92 NSCLC) [µM] | GI50 (OVCAR-8 ovarian) [µM] | TGI (OVCAR-8 ovarian) [µM] | GI50 (SW-620 colon) [µM] | TGI (SW-620 colon) [µM] | GI50 (SK-MEL-28 melanoma) [µM] | TGI (SK-MEL-28 melanoma) [µM] | GI50 (A498 renal) [µM] | TGI (A498 renal) [µM] | GI50 (SK-MEL-5 melanoma) [µM] | TGI (SK-MEL-5 melanoma) [µM] |
| --- | --- | --- | --- | --- | --- | --- | --- | --- | --- | --- | --- | --- | --- | --- | --- | --- | --- | --- | --- | --- |
| CCOC(=O)c1c(C)nc2c(c1N)/C(=C/c1ccc(OC)cc1)C(=O)N2Cc1ccc(F)cc1 | 0.16 | 0.317 | 1.03 | 4.83 | 0.146 | 0.333 | 1.37 | 3.59 | 0.263 | 0.859 | 0.257 | 1.06 | 0.14 | 0.349 | 0.183 | 0.374 | 0.535 | 2.6 | 0.333 | 1.48 |
| Cc1[nH]c2ccccc2c1C1Cc2ccccc2N1C(=O)/C(Cl)=C/c1ccccc1 (stereo not given) | – | > 100 | – | 99.6 | – | > 100 | – | > 100 | – | > 100 | – | > 100 | – | > 100 | – | > 100 | – | > 100 | – | > 100 |
| COC1=CC2(C=CC1=O)c1cc(OC)c(OC)cc1CCN2C(=O)c1ccccc1 (stereo not given) | – | > 100 | – | > 100 | – | > 100 | – | > 100 | – | > 100 | – | > 100 | – | > 100 | – | > 100 | – | > 100 | – | > 100 |
| CC[CH2][Sn]([Cl])([Cl])[CH2]CC.Oc1ccccc1C=NCCN=Cc1ccccc1O | 5.77 | 19.6 | 3.34 | 16.1 | 2.97 | 10.1 | 14.7 | 32.7 | 2.09 | 8.8 | 12.3 | 27.7 | 1.8 | 3.82 | 8.7 | 21.6 | 2.22 | 6.03 | 4.87 | 17.5 |
| Cc1nc(-c2ccccc2)c(-c2ccccc2)s1 | – | 56.8 | – | > 100 | – | 38.8 | – | > 100 | – | 83.6 | – | > 100 | – | 39.6 | – | > 100 | – | 64.4 | – | 27.5 |
| Nc1ncn(C2CC(O)C(CO)O2)c(=O)n1 (stereo not given) | – | 265 | – | > 288 | – | > 298 | – | 247 | – | > 375 | – | 370 | – | 373 | – | > 324 | – | > 332 | – | 254 |
| O=C(/C=C\n1cnc(-c2cc(C(F)(F)F)cc(C(F)(F)F)c2)n1)NNc1cnccn1 | 0.232 | 6.83 | 0.118 | 1.97 | 0.0515 | 5.28 | 0.0534 | 11.2 | 0.094 | 9.21 | 0.0769 | 36.5 | 0.0472 | 13.3 | 0.0672 | 11 | 0.0216 | 0.338 | 0.151 | 2.22 |
| CCc1oc2ccccc2c1C(=O)c1cc(I)c(O)c(I)c1 | 3.32 | 16.8 | 1.54 | 6.43 | 5.05 | 18.7 | 2.05 | 7.65 | 1.04 | 7.73 | 4.9 | 28.5 | 2.39 | 12.6 | 8.45 | 21.6 | 3.84 | 17 | 3.2 | 13.9 |
| N#Cc1cccc(NC(=O)c2cc(-c3ccc(F)cc3F)ccc2O)c1 | 0.87 | 4.42 | 2.08 | 8.05 | 10.9 | 28.2 | 2.16 | 5.19 | 0.294 | 2.43 | 2.88 | > 100 | 3.02 | 22.3 | 2.07 | 14.8 | 1.27 | 4.3 | 0.728 | 2.15 |
| N#CCC(=O)NC1C2CC3CC(C2)CC1C3 (stereo not given) | – | 28.7 | – | 33.5 | – | 34 | – | 32 | – | 36.1 | – | 33.1 | – | 51.7 | – | 43.3 | – | 30.2 | – | 27.9 |
| Cc1ccc(C(=O)Nc2ccc(CN3CCN(C)CC3)c(C(F)(F)F)c2)cc1C#Cc1cnc(N)c2ccccc12 | 0.565 | 1.25 | 0.726 | 1.52 | 0.655 | 1.62 | 0.785 | 1.69 | 0.506 | 2.08 | 0.476 | 2.09 | 0.41 | 1.14 | 0.479 | 1.15 | 0.31 | 1.3 | 0.835 | 1.62 |
